In PubChem BioAssay (NCI):
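Each compound was tested at five concentrations against cells in 96-well plates for 48 hours. At the GI50, growth is halved. TGI marks complete inhibition of growth.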

What was measured:
Assay in all cases: NCI-60 cell line screen, 48 h
[1] = system: U251 CNS
[2] = system: MOLT-4 leukemia
[3] = system: SK-MEL-28 melanoma
[4] = system: K-562 leukemia
[5] = system: MDA-MB-435
[6] = system: NCI-H460 lung
[7] = system: HL-60(TB) leukemia
[8] = system: PC-3 prostate
[9] = system: SF-295 CNS
[10] = system: OVCAR-5 ovarian

Compound	TGI [1]	TGI [2]	TGI [3]	TGI [4]	TGI [5]	TGI [6]	TGI [7]	TGI [8]	TGI [9]	TGI [10]	GI50 [1]	GI50 [2]	GI50 [3]	GI50 [4]	GI50 [6]	GI50 [9]	GI50 [10]	GI50 [5]	GI50 [7]	GI50 [8]
NC(Cc1cc(Br)c(O)c(Br)c1)C(=O)O (configuration not stated)	> 100 µM	> 100 µM	> 100 µM	> 100 µM	> 100 µM	> 100 µM	> 100 µM	> 100 µM	> 100 µM	> 100 µM										
CCC[CH2][Sn]([CH2]CCC)([O]C(=O)c1cc(OC)c(OC)c(OC)c1)[O]C(=O)c1cc(OC)c(OC)c(OC)c1	2.55 µM	4.11 µM	1.99 µM	1.99 µM		9.21 µM			3.19 µM	3.83 µM	1.28 µM	0.505 µM	0.633 µM	0.29 µM	2.96 µM	1.6 µM	2.32 µM			
COc1ccc(C2=C(Br)C(=O)OC2)cc1Cl	> 91.1 µM	> 100 µM	> 93.1 µM	> 86.2 µM	> 100 µM	> 100 µM	> 100 µM	> 91.5 µM	98.4 µM	> 100 µM	28.5 µM	29.5 µM	30.9 µM	33.7 µM	33.2 µM	34 µM	51.2 µM	27.4 µM	42.8 µM	33.1 µM
O=[n+]1cnn([O-])c2ccccc21	> 100 µM	> 100 µM	> 100 µM	> 100 µM	> 100 µM			> 100 µM	> 100 µM	> 100 µM										
CCCCCCCCC(=O)CCCCCCCCC(=O)O	> 100 µM	40.2 µM	> 100 µM	46.6 µM		44.6 µM	16.2 µM		> 100 µM	55.3 µM										
CC(=O)c1cc2c3c(c1)c1cc4c(cc1c(=O)n3CC2)OCO4	> 100 µM	9.92 µM	> 100 µM	> 100 µM		49.7 µM	> 100 µM		> 100 µM	> 100 µM										
Cc1c(NC(=O)CCCl)c(=O)oc2c(C)c3occc(=O)c3cc12	> 100 µM	> 100 µM	> 100 µM	> 100 µM		> 100 µM	> 100 µM		> 100 µM	> 100 µM										
O=C(Nc1cccc(-n2cc(-c3ccncc3)c(-c3cc(O)cc(Cl)c3)n2)c1)Nc1ccc(Cl)c(Cl)c1	3.09 µM	5.16 µM	5.55 µM	> 100 µM		6.14 µM		5.68 µM	4.6 µM	6.16 µM	1.44 µM	1.43 µM	2.14 µM	2.56 µM	2.18 µM	1.7 µM	2.14 µM			1.69 µM
COC(=O)C(=C\Sc1ccccc1)/C=C/C(=O)OC(C)(C)C	27.7 µM	9.44 µM	26.2 µM	15.8 µM		33.2 µM	3.73 µM		34.3 µM	28.8 µM										
O=S1Cc2ccccc2CS1 (configuration not stated)	24.5 µM	56 µM	28.3 µM	49.9 µM		64.6 µM	40.9 µM		> 100 µM	56.9 µM										
NC(=O)c1ncn(C2OC(CO)C(O)C2O)n1 (configuration not stated)		> 100 µM	> 100 µM	> 100 µM	> 100 µM	> 100 µM	> 100 µM	> 100 µM		> 100 µM		52.9 µM	> 100 µM	51.9 µM	64.2 µM		> 100 µM	> 100 µM	> 100 µM	59.6 µM
Cc1cc(NC(=O)NC(=O)c2ccccc2[N+](=O)[O-])ccc1Oc1ncc(Cl)cn1	4.42 µM	> 100 µM	98 µM	> 100 µM		18.8 µM	0.137 µM	94.5 µM	29.3 µM	> 100 µM										
CCCCC(SC(=S)N(CC)CC)C(=O)Nc1nc(CC(=O)OCC)cs1 (configuration not stated)	> 100 µM	> 100 µM	> 100 µM	> 100 µM	> 100 µM		98.5 µM	> 100 µM	> 100 µM	> 100 µM	42.1 µM	20.2 µM	47.3 µM	25 µM		38.6 µM	40.3 µM	31.4 µM	28.6 µM	0.776 µM
COC(=O)C1C2CC3C(OC(=O)C31)C2I (configuration not stated)	> 100 µM	> 100 µM	> 10 µM	> 100 µM		> 100 µM	> 100 µM		> 100 µM	> 100 µM										
Nc1ccn(C2OC(CO[P+](=O)OC3C(CO[P+](=O)OC4C(CO[P+](=O)OC5C(CO[P+](=O)OC6C(CO[P+](=O)OC7C(CO[P+](=O)OC8C(CO[P+](=O)OC9C(CO[P+](=O)OC%10C(CO[P+](=O)OC%11C(CO)OC(n%12ccc(N)nc%12=O)C%11(F)F)OC(n%11ccc(N)nc%11=O)C%10(F)F)OC(n%10ccc(N)nc%10=O)C9(F)F)OC(n9ccc(N)nc9=O)C8(F)F)OC(n8ccc(N)nc8=O)C7(F)F)OC(n7ccc(N)nc7=O)C6(F)F)OC(n6ccc(N)nc6=O)C5(F)F)OC(n5ccc(N)nc5=O)C4(F)F)OC(n4ccc(N)nc4=O)C3(F)F)C(O)C2(F)F)c(=O)n1 (configuration not stated)	> 100 µM		> 100 µM	> 100 µM	> 100 µM		0.18 µM	> 100 µM	> 100 µM	> 100 µM			> 100 µM	2.71 µM			9.59 µM			80.5 µM
S=C1CNC(=S)CN1	> 100 µM	> 100 µM	> 100 µM	> 100 µM		> 100 µM	> 100 µM		> 100 µM	> 100 µM										
NCC(=O)Nc1ccc(-n2nc(C(F)(F)F)cc2-c2ccc3c(ccc4ccccc43)c2)cc1		4.01 µM	2.81 µM	3.38 µM		1.74 µM	3.42 µM	2.66 µM	2.6 µM	2.95 µM		0.809 µM	1.45 µM	0.472 µM	0.307 µM	1.16 µM	1.56 µM		1.3 µM	1.24 µM
COC(=O)C1=C2C3=C(C(=O)c4ccccc4C3=O)N(Cc3ccccc3)C2(OC(C)=O)C=CC1=O (configuration not stated)	39.4 µM	> 100 µM	66.7 µM	> 100 µM	25.3 µM	> 100 µM		19.2 µM	29.3 µM	> 100 µM	9.86 µM	0.846 µM	27.8 µM	4.69 µM	5.93 µM	6.3 µM	18.4 µM	9.52 µM		2.36 µM

Compound	TGI [1]	TGI [2]	TGI [3]	TGI [4]	TGI [5]	TGI [6]	TGI [7]	TGI [8]	TGI [9]	TGI [10]	GI50 [1]	GI50 [2]	GI50 [3]	GI50 [4]	GI50 [6]	GI50 [9]	GI50 [10]	GI50 [5]	GI50 [7]	GI50 [8]
c1ccc2c(c1)nnn1c3cnccc3nc21	> 100 µM	54.9 µM	> 100 µM	69.6 µM		37.4 µM	33 µM		> 100 µM	> 100 µM										
Nc1ccccc1C#Cc1ccccc1C#Cc1ccccc1N	17.3 µM	11.9 µM	87.8 µM	12.8 µM	4.39 µM	> 100 µM		23.3 µM	10.5 µM	67.4 µM	4.5 µM	2.12 µM	15.1 µM	2.01 µM	5.89 µM	3.13 µM	27.6 µM	1.31 µM		5.31 µM
Cn1c(O)c(C=N)c(=O)n(C)c1=O	> 100 µM	> 100 µM	> 100 µM	> 100 µM		> 100 µM	> 100 µM		> 100 µM	> 100 µM										
CCOC(=O)CC(=O)N(c1ccc(OC)cc1)C(C(=O)OC)c1ccccc1 (configuration not stated)			> 100 µM	> 100 µM	> 100 µM	> 100 µM		> 100 µM	> 100 µM	> 100 µM										
O=C1OCC2=C1C(c1cccc([N+](=O)[O-])c1)c1cc3c(cc1N2CCO)CCC3 (configuration not stated)	> 50 µM	43.3 µM	> 39.9 µM	> 50 µM		14.6 µM	0.373 µM	> 50 µM	16.4 µM	> 50 µM	0.218 µM	0.254 µM	1.3 µM	0.0666 µM	0.172 µM	0.0789 µM	0.231 µM		0.137 µM	0.145 µM
CCCCN(CCCC)c1cc(C(=O)CCCCCN)c2ccccc2n1	3.23 µM	5.47 µM	3.37 µM	5 µM				6.07 µM	3.85 µM	3.65 µM	1.77 µM	2.54 µM	1.91 µM	2.47 µM		1.86 µM	1.85 µM			2.56 µM
CCC1(O)C(=O)OCc2c1cc1n(c2=O)Cc2c-1nc1ccccc1c2OC (configuration not stated)	0.0801 µM	< 0.0195 µM	> 53.8 µM	> 100 µM			< 0.0341 µM		11.3 µM	27.4 µM										
CC1=C(C)C(=O)c2c(cc3c4ccccc4ccn23)C1=O	> 100 µM	> 100 µM	> 100 µM	> 100 µM		> 100 µM			> 100 µM											
COc1ccc(S(=O)(=O)Nc2cc(/C=C\c3cc(OC)c(OC)c(OC)c3)cc(OC)c2OC)cc1OC	> 100 µM	> 100 µM	61.3 µM	> 100 µM		> 100 µM	> 100 µM	> 100 µM	55.6 µM	> 100 µM	0.681 µM	0.702 µM	3.27 µM	0.425 µM	0.399 µM	0.47 µM	6.57 µM		0.37 µM	0.374 µM
CC12Oc3ccc4ccccc4c3C1c1c(ccc3ccccc13)O2 (configuration not stated)	> 100 µM	> 100 µM	> 100 µM	> 100 µM		> 100 µM			> 100 µM	> 100 µM										
CCOC(=O)/C(=C/c1cc(OC)ccc1OC)CC(=O)O	> 100 µM	> 31.6 µM	> 100 µM	> 31.6 µM		> 100 µM	> 31.6 µM		> 100 µM											
OCC1OC(n2ccc3cnccc32)CC1O (configuration not stated)	> 100 µM	> 100 µM	> 100 µM	> 100 µM		> 100 µM	> 100 µM		> 100 µM	> 100 µM										
Cc1cc(N2CCOCC2)nc(N(CCNc2ccnc3cc(Cl)ccc23)Cc2ccco2)n1	12.4 µM	> 100 µM	7.67 µM	> 100 µM	15.2 µM	23.9 µM		20.6 µM	3.64 µM	44.6 µM	3.21 µM	3.41 µM	2.69 µM	2.91 µM	3.72 µM	1.68 µM	9.4 µM	3.27 µM		4.38 µM
O=[N+]([O-])c1ccc(Oc2cccnc2)c([N+](=O)[O-])c1	12.7 µM	32.2 µM	23.9 µM	> 100 µM		47.8 µM		36.4 µM	> 100 µM	16.9 µM	3.12 µM	6.08 µM	9.49 µM	3.22 µM	10.5 µM	18.6 µM	3.26 µM			4.98 µM
CC1C(=O)CCC1C(Sc1ccccc1)(Sc1ccccc1)Sc1ccccc1 (configuration not stated)	> 100 µM	37.9 µM	> 100 µM	80.5 µM		> 100 µM	23.7 µM		> 100 µM	> 100 µM										
COC1OC(COCc2ccc(Cl)cc2)C(OCc2ccc(Cl)cc2)C1O (configuration not stated)	29.1 µM	66.6 µM	31.4 µM	38.5 µM		32 µM	32.2 µM		32.3 µM	30 µM										
C=CC[Se]C(=O)c1ccccc1OC(C)=O		8.43 µM	3.53 µM	> 100 µM	3.35 µM	1.84 µM	6.54 µM	2.48 µM	1.32 µM			2.9 µM	1.85 µM	3.1 µM	0.36 µM	0.332 µM		1.72 µM	2.4 µM	0.717 µM
CCOC(=O)NC(=O)c1cn(CCCCCCCCCCC(=O)N2CCN(CCn3cc(C(=O)NC(=O)OCC)c(=O)[nH]c3=O)CC2)c(=O)[nH]c1=O	> 100 µM	> 100 µM	> 100 µM	> 100 µM		> 100 µM	> 100 µM		> 100 µM											
